Source: the Kinase Knowledgebase extract (Sharma et al. 2016)

Molecular target: PIK3CG (human) (UniProt P48736)
Experiment: Inhibition of PIK3CG Kinase Activity

Sequence of PIK3CG (human) (P48736 whole entry, looked up): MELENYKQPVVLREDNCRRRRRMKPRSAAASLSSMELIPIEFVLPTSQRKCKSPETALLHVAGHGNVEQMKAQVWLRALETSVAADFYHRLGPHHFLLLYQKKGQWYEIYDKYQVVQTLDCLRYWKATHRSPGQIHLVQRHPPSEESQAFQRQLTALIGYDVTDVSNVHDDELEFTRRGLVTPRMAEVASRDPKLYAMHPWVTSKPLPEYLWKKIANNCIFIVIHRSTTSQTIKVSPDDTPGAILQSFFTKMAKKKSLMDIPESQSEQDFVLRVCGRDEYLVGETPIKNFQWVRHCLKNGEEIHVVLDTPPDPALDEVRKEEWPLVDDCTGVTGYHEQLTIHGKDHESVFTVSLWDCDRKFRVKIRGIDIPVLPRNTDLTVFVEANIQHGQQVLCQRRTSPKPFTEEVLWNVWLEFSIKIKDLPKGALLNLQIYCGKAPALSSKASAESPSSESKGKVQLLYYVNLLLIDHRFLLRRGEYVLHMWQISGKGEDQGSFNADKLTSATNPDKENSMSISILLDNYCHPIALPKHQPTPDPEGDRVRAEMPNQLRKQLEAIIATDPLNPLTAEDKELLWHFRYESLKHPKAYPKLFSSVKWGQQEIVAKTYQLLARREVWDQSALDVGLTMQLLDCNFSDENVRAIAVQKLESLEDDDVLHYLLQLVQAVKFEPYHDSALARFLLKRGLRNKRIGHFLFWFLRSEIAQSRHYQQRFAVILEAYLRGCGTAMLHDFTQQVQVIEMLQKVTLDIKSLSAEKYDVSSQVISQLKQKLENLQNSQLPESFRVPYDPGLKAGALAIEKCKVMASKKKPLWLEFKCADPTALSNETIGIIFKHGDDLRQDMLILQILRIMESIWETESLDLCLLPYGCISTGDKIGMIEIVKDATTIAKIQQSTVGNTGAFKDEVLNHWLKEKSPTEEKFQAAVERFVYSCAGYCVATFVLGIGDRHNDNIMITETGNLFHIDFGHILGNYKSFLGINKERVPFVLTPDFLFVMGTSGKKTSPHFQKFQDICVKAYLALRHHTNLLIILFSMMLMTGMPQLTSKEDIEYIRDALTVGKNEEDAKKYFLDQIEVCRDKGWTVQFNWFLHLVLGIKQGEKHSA

SMILES	IC50 [nM]
Cn1nc(-c2cc(F)c(C#N)c(F)c2)c2cnc(N)nc21	< 2000
Cn1nc(-c2cc(F)c(OCCN3CCCC3)c(Br)c2)c2cnc(N)nc21	< 2000
Cn1nc(-c2cccc(NS(C)(=O)=O)c2)c2cnc(N)nc21	< 2000
Cn1nc(-c2cccc(F)c2)c2cnc(N)nc21	< 2000
CN(C)C(=O)c1cc(-c2nn(C)c3nc(N)ncc23)cc(F)c1OCc1ccccc1	< 2000
Cn1nc(-c2ccc(OCc3ccccc3)c(F)c2)c2cnc(N)nc21	< 2000
Cn1nc(-c2cc(C=O)ccc2O)c2cnc(N)nc21	< 2000
COc1ncc(-c2nn(C)c3nc(N)ncc23)cc1F	< 2000
Cn1nc(-c2ccc(O)c(C(F)(F)F)c2)c2cnc(N)nc21	< 2000
CC(=O)c1ccc(-c2nn(C)c3nc(N)ncc23)cc1	< 2000
Cn1nc(-c2cnc(N)c(C(F)(F)F)c2)c2cnc(N)nc21	< 2000
Cn1nc(-c2ccc(OCCO)c(F)c2)c2cnc(N)nc21	< 2000
CC(C)Oc1ccc(-c2nn(C)c3nc(N)ncc23)cc1Cl	< 2000
COc1cc(OC(F)(F)F)ccc1-c1nn(C)c2nc(N)ncc12	< 2000
COc1ccc(OC)c(-c2nn(C)c3nc(N)ncc23)c1	< 2000
Cn1nc(-c2ccc3c(c2)OCCO3)c2cnc(N)nc21	< 2000
Cn1nc(-c2cc(Cl)ccc2O)c2cnc(N)nc21	< 2000
CC(=O)c1cccc(-c2nn(C)c3nc(N)ncc23)c1	< 2000
COCCOc1ccc(-c2nn(C)c3nc(N)ncc23)cc1F	< 2000
Cn1nc(-c2ccc(OCCCN3CCOCC3)c(F)c2)c2cnc(N)nc21	< 2000
COc1ccc(CO)cc1-c1nn(C)c2nc(N)ncc12	< 2000
COc1ccc(C=O)cc1-c1nn(C)c2nc(N)ncc12	< 2000
COc1cc(-c2nn(C)c3nc(N)ncc23)cc(OC)c1OC	< 2000
COc1ccc(C(=O)O)cc1-c1nn(C)c2nc(N)ncc12	< 2000
Cn1nc(-c2cc(Cl)c(O)cc2O)c2cnc(N)nc21	< 2000
Cn1nc(-c2cc(F)ccc2OCCO)c2cnc(N)nc21	< 2000

SMILES	IC50 [nM]
CNS(=O)(=O)c1cc(-c2nn(C)c3nc(N)ncc23)c(OC)cc1OC	< 2000
Cc1ccc(-c2nn(C)c3nc(N)ncc23)cc1[N+](=O)[O-]	< 2000
Cn1nc(-c2cccc(S(C)(=O)=O)c2)c2cnc(N)nc21	< 2000
Cn1nc(-c2cc(F)c(OCCO)c(Br)c2)c2cnc(N)nc21	< 2000
Cn1nc(-c2cc(Cl)c(O)c(Br)c2O)c2cnc(N)nc21	< 2000
Cn1nc(-c2ccc(N)c(F)c2)c2cnc(N)nc21	< 2000
Cn1nc(-c2cc(F)cc(Br)c2)c2cnc(N)nc21	< 2000
CC(C)CNC(=O)c1cccc(-c2nn(C)c3nc(N)ncc23)c1	< 2000
COc1cc(OC)c(S(=O)(=O)NC(C)C)cc1-c1nn(C)c2nc(N)ncc12	< 2000
CNc1ncc2c(-c3ccc(OC)c(F)c3)nn(C)c2n1	< 2000
CNC(=O)c1cccc(-c2nn(C)c3nc(N)ncc23)c1	< 2000
Cn1nc(-c2cc(F)c3[nH]ccc3c2)c2cnc(N)nc21	< 2000
CNS(=O)(=O)c1cc(-c2nn(C)c3nc(N)ncc23)ccc1Cl	< 2000
Cn1nc(-c2ccc(O)cc2O)c2cnc(N)nc21	< 2000
CNS(=O)(=O)c1cccc(-c2nn(C)c3nc(N)ncc23)c1	< 2000
Cn1nc(-c2ccc(F)c(Cl)c2)c2cnc(N)nc21	< 2000
COc1ccc(-c2nn(C)c3nc(N)ncc23)cc1Br	< 2000
Cn1nc(-c2cc(Cl)c(O)c(C(F)(F)F)c2)c2cnc(N)nc21	< 2000
Cn1nc(-c2ccc(Cl)c(Cl)c2)c2cnc(N)nc21	< 2000
CC(C)Oc1ccc(-c2nn(C)c3nc(N)ncc23)cc1F	< 2000
COc1c(Cl)cc(C(F)(F)F)cc1-c1nn(C)c2nc(N)ncc12	< 2000
Cn1nc(-c2cc(C(F)(F)F)ccc2O)c2cnc(N)nc21	< 2000
CC(C)Cc1ccc(-c2nn(C)c3nc(N)ncc23)cc1	< 2000
Cn1nc(-c2cncc(S(C)(=O)=O)c2)c2cnc(N)nc21	< 2000
Cn1nc(-c2ccc(OCCCO)c(F)c2)c2cnc(N)nc21	< 2000
Cn1nc(-c2ccnc(Cl)c2)c2cnc(N)nc21	< 2000

SMILES	IC50 [nM]
Cn1nc(-c2ccc(OCC#N)c(F)c2)c2cnc(N)nc21	< 2000
COc1cc(OC)c(-c2nn(C)c3nc(N)ncc23)cc1Cl	< 2000
CCOc1ccc2ccccc2c1-c1nn(C)c2nc(N)ncc12	< 2000
COc1cccc(OC)c1-c1nn(C)c2nc(N)ncc12	< 2000
COc1ccc(-c2nn(C)c3nc(N)ncc23)cc1Cl	< 2000
COc1cc(OC(F)(F)F)c(Cl)cc1-c1nn(C)c2nc(N)ncc12	< 2000
Cn1nc(-c2ccc3ccoc3c2)c2cnc(N)nc21	< 2000
Cn1nc(-c2cc(F)ccc2O)c2cnc(N)nc21	< 2000
Cn1nc(-c2cc(F)c(C=O)c(F)c2)c2cnc(N)nc21	< 2000
CC(C)NC(=O)c1cccc(-c2nn(C)c3nc(N)ncc23)c1	< 2000
Cn1nc(-c2cccc3cccnc23)c2cnc(N)nc21	< 2000
Cn1nc(-c2cccc(F)c2O)c2cnc(N)nc21	< 2000
Cn1nc(-c2cccc(C(F)(F)F)c2)c2cnc(N)nc21	< 2000
Cn1nc(-c2ccc(OCCn3ccnc3)c(F)c2)c2cnc(N)nc21	< 2000
COc1cc(-c2nn(C)c3nc(N)ncc23)cc(Cl)c1O	< 2000
Cn1nc(-c2cc(F)c(O)c(F)c2)c2cnc(N)nc21	< 2000
Cn1nc(-c2cc(Cl)c(OC(F)(F)F)c(Br)c2O)c2cnc(N)nc21	< 2000
Cn1nc(-c2ccc3c(c2)OCO3)c2cnc(N)nc21	< 2000
COc1c(F)cc(-c2nn(C)c3nc(N)ncc23)cc1NC(C)=O	< 2000
COc1cc(F)ccc1-c1nn(C)c2nc(N)ncc12	< 2000
Cn1nc(-c2ccc(NS(C)(=O)=O)c(F)c2)c2cnc(N)nc21	< 2000
COc1ccc(C(=O)NC(C)C)cc1-c1nn(C)c2nc(N)ncc12	< 2000
Cn1nc(-c2cc(O)cc(F)c2)c2cnc(N)nc21	< 2000
Cn1nc(-c2ccc(O)c(F)c2)c2cnc(N)nc21	< 2000
Cn1nc(-c2cc(Cl)cc(Br)c2O)c2cnc(N)nc21	< 2000
Cn1nc(-c2ccncc2)c2cnc(N)nc21	< 2000

SMILES	IC50 [nM]
COc1ccc(Br)cc1-c1nn(C)c2nc(N)ncc12	< 2000
COc1ccc(F)cc1-c1nn(C)c2nc(N)ncc12	< 2000
Cc1noc(C)c1-c1nn(C)c2nc(N)ncc12	< 2000
COc1ncc(-c2nn(C)c3nc(N)ncc23)c(OC)n1	< 2000
COc1cc(-c2nn(C)c3nc(N)ncc23)ccn1	< 2000
CN1CCN(CCCOc2ccc(-c3nn(C)c4nc(N)ncc34)cc2F)CC1	< 2000
Cn1nc(-c2ccc(OC(F)(F)F)cc2O)c2cnc(N)nc21	< 2000
COc1cc(OC)c(S(=O)(=O)O)cc1-c1nn(C)c2nc(N)ncc12	< 2000
Cn1nc(-c2ccc(O)cc2)c2cnc(N)nc21	< 2000
CCN(CC)S(=O)(=O)c1cc(-c2nn(C)c3nc(N)ncc23)ccc1O	< 2000
Cn1nc(-c2ccc(F)c(F)c2)c2cnc(N)nc21	< 2000
Cc1cccc(-c2nn(C)c3nc(N)ncc23)c1	< 2000
Cn1nc(-c2cccc(Br)c2OCc2ccccc2F)c2cnc(N)nc21	< 2000
Cn1nc(-c2cccnc2)c2cnc(N)nc21	< 2000
Cn1nc(-c2cc(F)cc(OCC(=O)O)c2)c2cnc(N)nc21	< 2000
Cn1nc(-c2ccc(OCCN3CCCC3)c(F)c2)c2cnc(N)nc21	< 2000
Cn1nc(-c2ccc(C#N)cc2)c2cnc(N)nc21	< 2000
Cn1nc(-c2cc(F)c(O)c(C=O)c2)c2cnc(N)nc21	< 2000
COc1ccc(Cl)cc1-c1nn(C)c2nc(N)ncc12	< 2000
Cn1nc(-c2cccc(O)c2)c2cnc(N)nc21	< 2000
Cn1nc(-c2cc(C(F)(F)F)cc(Cl)c2O)c2cnc(N)nc21	< 2000
Cc1[nH]c2ccc(-c3nn(C)c4nc(N)ncc34)cc2c1C	< 2000
COc1ccc(-c2nn(C)c3nc(N)ncc23)cn1	< 2000
COc1ccc(NCCCN(C)C)cc1-c1nn(C)c2nc(N)ncc12	< 2000
COc1ccc(-c2nn(C)c3nc(N)ncc23)cc1	< 2000
COc1ccc(-c2nn(C)c3nc(N)nc(NCc4ccccc4)c23)cc1F	< 2000

SMILES	IC50 [nM]
COCCOc1c(F)cc(-c2nn(C)c3nc(N)ncc23)cc1Br	< 2000
Cn1nc(-c2cc(F)c(O)c(C#N)c2)c2cnc(N)nc21	< 2000
Cn1nc(-c2cc(Cl)c(O)c(Cl)c2)c2cnc(N)nc21	< 2000
Cn1nc(-c2cc(F)c(O)c(Cl)c2)c2cnc(N)nc21	< 2000
Cn1nc(-c2ccc(Cl)s2)c2cnc(N)nc21	< 2000
Cn1nc(-c2ccc(OCCN3CCOCC3)c(F)c2)c2cnc(N)nc21	< 2000
Cn1nc(-c2cnc(N3CCNCC3)nc2)c2cnc(N)nc21	< 2000
Cn1nc(-c2cc(F)c(C(=O)O)c(F)c2)c2cnc(N)nc21	< 2000
Cn1nc(-c2cc(F)cc(F)c2)c2cnc(N)nc21	< 2000
Cn1nc(-c2cc(F)c(O)c(Br)c2)c2cnc(N)nc21	< 2000
COc1ccc(-c2nn(C)c3nc(N)ncc23)cc1F	< 2000
Cn1nc(-c2ccc(Cl)c(NS(C)(=O)=O)c2)c2cnc(N)nc21	< 2000
Cn1nc(-c2ccco2)c2cnc(N)nc21	< 2000
COc1c(F)cc(-c2nn(C)c3nc(N)ncc23)cc1F	< 2000
CC(=O)c1ccc(-c2nn(C)c3nc(N)ncc23)s1	< 2000
COc1ccc(C(F)(F)F)cc1-c1nn(C)c2nc(N)ncc12	< 2000
Cn1nc(-c2ccc(F)c(F)c2F)c2cnc(N)nc21	< 2000
Cn1nc(-c2cc(Cl)c(O)c(Cl)c2)c2c(NCCN3CCOCC3)nc(N)nc21	< 2000
Cn1nc(-c2cncc(C(F)(F)F)c2)c2cnc(N)nc21	< 2000
Cn1nc(-c2ccc3cc[nH]c3c2)c2cnc(N)nc21	< 2000
CCOc1ccc(-c2nn(C)c3nc(N)ncc23)cc1F	< 2000
COc1c(F)cc(F)cc1-c1nn(C)c2nc(N)ncc12	< 2000
